Laboratory results published in patent US12186392B2, “Combination therapy of an anti CD20 antibody with a BTK inhibitor” (Ono Pharmaceutical Co., Ltd., priority 2013, dated 2025).
Structures can show the parent of a compound that is named as a salt. Blank lines part the entries; values can stand above or below the molecule they belong to.

Assays:
TMD8 (ABC-DLBCL) cells [1] = assay: Antitumor activity study of compound A in combination with GA101/RTX in TMD8 xenograft model (Example 2); type: in vivo, SCID mice; conditions: for Tumor growth inhibition (TGI): vs vehicle group, GA101 3 mg/kg i.v. Q7Dx4, RTX 3 mg/kg i.v. Q7Dx4, compound A 10 mg/kg p.o. twice daily
Protocol: Mice were xenografted on DO. […] Mice received one IV injection of Rituximab (at 3 mg/kg) or one IV injection of GA101 (at 3 mg/kg) once a week (D14 (Day 0), 21 (Day 7), 28 (Day 14) and 35 (Day 21): Q7D×4). Tumor volumes were monitored and recorded twice a week.
Compound A was per os (PO) administered to mice twice daily by oral gavage via a disposable oral feeding needle (Fuchigami Kikai Co.) at 10 ml/kg. GA101/Rituximab were intravenously (IV) injected at 10 ml/kg in the caudal vein of mice. For all treatments, the administration volumes were adapted according to the closest measure of individual body weight for each mouse. The compound A b.i.d. group and the vehicle group received compound A and 0.5% MC, respectively, in the morning and afternoon at an interval of 8 h or more.
(§1) Female C.B-17/lcr-SCID/SCIDJcl mice (Clea Japan Inc., age at initiation of experiment: 6 weeks; hereinafter referred to as “Scid mice”) were used. The mice were kept in metal mouse cages, 3 to 5 to a cage, and underwent about 1 week acclimation period prior to being subjected to the experiment. While at our facility, the animals were allowed solid feed, CRF-1 (Oriental Yeast Co., Ltd.) and tap water (from an automatic dispenser) ad libitum. Excrement was processed with an automated cleaning system. The general condition of the animals was observed upon receipt and at the completion of acclimation. Animals having no problems with general condition were used in the experiment.
(§2) TMD8 was established from cells of a patient with diffuse large B-cell lymphoma (Tohda S et al., Leuk Res., 2006, 30: 1385-90). RPMI Medium 1640 (Invitrogen Corporation, hereinafter referred to as “RPMI”) containing 10 vol % inactivated FBS and 1 vol % Penicillin-Streptomycin liquid (Invitrogen Corporation) was prepared and used as medium. The medium was stored at 5° C. (allowable range: 1° C. to 9° C.). The cell suspension of 4×106 to 2.0×10^7 cells per dish was inoculated in a 150 mm dish containing the medium. The plates were incubated at 37° C., 5% CO2, 95% air.
(§3) At Day 0, the pellet was suspended in RPMI previously cooled on ice to obtain a 2×10^8 cells/mL cell suspension. The RPMI cell suspension and equal volume of BD Matrigel GFR (BD Biosciences) were combined to prepare a 1×10^8 cells/mL cell suspension. This was used as the cell suspension for implantation. Then, 0.1 mL of cell suspension was subcutaneously injected in the right flank of the mice under pentobarbital anesthesia, using a 25-gauge needle (Terumo Corporation).
(§4) The long axis and short axis of the tumors were measured with electronic calipers (Mitutoyo Corporation) every 2 or 4 days from TMD8 implantation to the final assessment day.
(§5) The primary endpoint was tumor volume on the final assessment day. In addition, the tumor growth inhibition rate (TGI, %) in the treatment groups versus the vehicle group was calculated. Temporal change in tumor volume and body weight from Day 0 were used as secondary endpoints. Tumor volume was calculated with the following formula. Tumor volume=Long axis of tumor×(short axis of tumor)2×0.5
The experiment in Example 2 was performed according to the method described in Example 1 except for the following “substance vehicle” and “treatment schedule”.
(§6) Compound A was weighed out and suspended in a 0.5 w/v % methyl cellulose 400 cP solution (Wako Pure Chemical Industries, Ltd., hereinafter referred to as “0.5% MC”), using a mortar and pestle, to obtain a 1 mg/mL (10 mg/kg) suspension. The suspension was used within 7 days of preparation.
The stock solutions of both GA101 (25 mg/mL) and Rituximab (10 mg/mL) were kept at 4° C. Before administration to mice, the stock solutions were diluted in NaCl 0.9% at 0.3 mg/mL (3 mg/kg) for this study.
When the mean tumor volume reached 400 to 450 mm^3 mice were randomized in groups of 6 according to their individual tumor volumes and treatment was initiated.

[2] = Stability and uniformity of compound A suspension in 0.5% methyl cellulose; type: physicochemical; conditions: 1 mg/mL suspension in 0.5% MC; 7 days under refrigeration, protected from light, and a further 24 hours at ambient temperature exposed to indoor lighting
Protocol: Compound A was weighed out and suspended in a 0.5 w/v % methyl cellulose 400 cP solution (Wako Pure Chemical Industries, Ltd., hereinafter referred to as “0.5% MC”), using a mortar and pestle, to obtain a 1 mg/mL suspension. The suspension was used within 7 days of preparation.
as §6

TMD8 (ABC-DLBCL) cells [3] = assay: Antitumor activity study of compound A or compound B (in diet) in combination with RTX in TMD8 xenograft model (Example 3); type: in vivo, SCID mice; conditions: for Tumor growth inhibition (TGI): vs vehicle group, RTX 3 mg/kg i.v. Q7Dx3, compound A 0.0037% in diet (6 mg/kg/day), compound B 0.012% in diet (20 mg/kg/day)
Protocol: Mice were xenografted on DO. […] Mice received one IV injection of Rituximab (at 3 mg/kg) once a week (D14 (Day 0), 21 (Day 7) and 28 (Day 14): Q7D×3). Tumor volumes were monitored and recorded at Day 3, Day 7, Day 11, Day 14, Day 18 and Day 21.
as §1, §2, §3, §4, §5
The experiment in Example 3 was performed according to the method described in Example 1 except for the following “substance vehicle”, “route of drug administration” and “treatment schedule”
The comparative substance, ibrutinib (hereinafter referred to as “compound B”), was stored in sealed containers at ambient temperature, protected from light.
The dose of compound A or compound B corresponds to a daily intake of 6 or 20 mg/kg of body weight.
Treatment groups: Mice fed the same diet containing compound A or compound B after randomization. Rituximab was administered intravenously at a 3 mg/kg once weekly.
Tumor diameter was measured and tumor volume was calculated every 3 or 4 days after group assignment.

TMD8 (ABC-DLBCL) cells [4] = assay: Antitumor efficacy study of compound A in combination with GA101 in SCID mice subcutaneously xenografted with TMD8 cells (Example 1); type: in vivo; conditions: GA101 1 and 3 mg/kg i.v. Q7Dx4
Protocol: Mice were xenografted on DO. Mice received one PO administration of vehicle and compound A at 10 mg/kg twice every day (Q0.5D×24) alone or in combination with one IV injection of GA101 at 1 and 3 mg/kg once a week (Q7D×4). Mice received one IV injection of Rituximab (at 3 mg/kg) or one IV injection of GA101 (at 1 and 3 mg/kg) once a week (D14 (Day 0), 21 (Day 7), 28 (Day 14) and D35 (Day 21): Q7D×4). Tumor volumes were monitored and recorded twice a week.
Antitumor efficacy study of BTK inhibitor in combination with anti-CD20 Abs in SCID mice subcutaneously xenografted with TMD8 (ABC-DLBCL) cells
The test substance, 6-amino-9-[(3R)-1-(2-butynoyl)-3-pyrrolidinyl]-7-(4-phenoxyphenyl)-7,9-dihydro-8H-purin-8-one hydrochloride (hereinafter referred to as “compound A”), was stored in sealed containers at ambient temperature, protected from light.
Compound A was weighed out and suspended in a 0.5 w/v % methyl cellulose 400 cP solution (Wako Pure Chemical Industries, Ltd., hereinafter referred to as “0.5% MC”), using a mortar and pestle, to obtain a 1 mg/mL suspension. The suspension was used within 7 days of preparation. […]
TMD8 was established from cells of a patient with diffuse large B-cell lymphoma (Tohda S et al., Leuk Res., 2006, 30: 1385-90). […] Cells were counted in a hemocytometer and their viability was at least 90% the day of cells injection. […]

[5] = system: NK cell-mediated cytotoxicity; conditions: Kohrt H E et al., Blood 123, 1957-1960, 2014; cited from earlier work

Stability and uniformity of suspension [2]: stable and uniform
Molecule: CC#CC(=O)N1CC[C@@H](n2c(=O)n(-c3ccc(Oc4ccccc4)cc3)c3c(N)ncnc32)C1 [compound A, 6-amino-9-[(3R)-1-(2-butynoyl)-3-pyrrolidinyl]-7-(4-phenoxyphenyl)-7,9-dihydro-8H-purin-8-one hydrochloride]
Tumor growth inhibition (TGI) (TMD8 (ABC-DLBCL) cells [1]; day 0): 0.0%
Tumor growth inhibition (TGI) (TMD8 (ABC-DLBCL) cells [1]; day 4): 13.7%
Tumor growth inhibition (TGI) (TMD8 (ABC-DLBCL) cells [1]; day 7): 17.6%
Tumor growth inhibition (TGI) (TMD8 (ABC-DLBCL) cells [1]; day 11): 34.0%
Tumor growth inhibition (TGI) (TMD8 (ABC-DLBCL) cells [1]; day 14): 45.8%
Tumor growth inhibition (TGI) (TMD8 (ABC-DLBCL) cells [1]; day 18): 46.4%
Tumor growth inhibition (TGI) (TMD8 (ABC-DLBCL) cells [1]; day 21): 62.6%
Statistical significance observed after Day (TMD8 (ABC-DLBCL) cells [1]; monotherapy, GA101 or RTX 3 mg/kg i.v., compound A 10 mg/kg p.o.): > 11 days
Antitumor activity compared with the compound B arm (TMD8 (ABC-DLBCL) cells [3]; compound A 0.0037% vs compound B 0.012% in diet, alone or with RTX 3 mg/kg): comparable to compound B (0.012%)
Tumor growth inhibition (TGI) (TMD8 (ABC-DLBCL) cells [3]; day 0): 0.0%
Tumor growth inhibition (TGI) (TMD8 (ABC-DLBCL) cells [3]; day 3): 12.7%
Tumor growth inhibition (TGI) (TMD8 (ABC-DLBCL) cells [3]; day 7): 42.8%
Tumor growth inhibition (TGI) (TMD8 (ABC-DLBCL) cells [3]; day 11): 47.55%
Tumor growth inhibition (TGI) (TMD8 (ABC-DLBCL) cells [3]; day 14): 51.1%
Tumor growth inhibition (TGI) (TMD8 (ABC-DLBCL) cells [3]; day 18): 61.0%
Tumor growth inhibition (TGI) (TMD8 (ABC-DLBCL) cells [3]; day 21): 56.1%

Molecule: GA101: obinutuzumab, afucosylated glyco-engineered humanized B-Ly1 type II anti-CD20 antibody
Tumor growth inhibition (TGI) (TMD8 (ABC-DLBCL) cells [1]; day 0): 1.7%
Tumor growth inhibition (TGI) (TMD8 (ABC-DLBCL) cells [1]; day 4): 30.9%
Tumor growth inhibition (TGI) (TMD8 (ABC-DLBCL) cells [1]; day 7): 45.0%
Tumor growth inhibition (TGI) (TMD8 (ABC-DLBCL) cells [1]; day 11): 53.3%
Tumor growth inhibition (TGI) (TMD8 (ABC-DLBCL) cells [1]; day 14): 63.3%
Tumor growth inhibition (TGI) (TMD8 (ABC-DLBCL) cells [1]; day 18): 72.2%
Tumor growth inhibition (TGI) (TMD8 (ABC-DLBCL) cells [1]; day 21): 77.9%
Antitumoral effect (tumour volume curves, FIGS. 1A-1B) (TMD8 (ABC-DLBCL) cells [4]): showed an antitumoral effect

Molecule: C=CC(=O)N1CCC[C@@H](n2nc(-c3ccc(Oc4ccccc4)cc3)c3c(N)ncnc32)C1 [compound B, ibrutinib]
Tumor growth inhibition (TGI) (TMD8 (ABC-DLBCL) cells [3]; day 0): 0.4%
Tumor growth inhibition (TGI) (TMD8 (ABC-DLBCL) cells [3]; day 3): 3.2%
Tumor growth inhibition (TGI) (TMD8 (ABC-DLBCL) cells [3]; day 7): 19.1%
Tumor growth inhibition (TGI) (TMD8 (ABC-DLBCL) cells [3]; day 11): 34.91%
Tumor growth inhibition (TGI) (TMD8 (ABC-DLBCL) cells [3]; day 14): 40.2%
Tumor growth inhibition (TGI) (TMD8 (ABC-DLBCL) cells [3]; day 18): 39.2%
Tumor growth inhibition (TGI) (TMD8 (ABC-DLBCL) cells [3]; day 21): 47.1%
Statistical significance observed after Day (TMD8 (ABC-DLBCL) cells [3]; monotherapy, RTX 3 mg/kg i.v., compound A 0.0037%, compound B 0.012% in diet): > 11 days
Effect on RTX-dependent NK cell-mediated cytotoxicity [5]: antagonizes RTX-dependent NK cell-mediated cytotoxicity
